For this assay, the system named is BDF1 mice, P388 leukemia ip, median survival T/C. Nature of the assay: NCI In Vivo Anticancer Drug Screen. Data for tumor model P388 Leukemia (intraperitoneal) in B6D2F1 (BDF1) mice. Particulars: endpoint: median survival time, higher = longer survival. A digest of the protocol: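 T/C = treated-group survival ÷ vehicle-control survival; tumour transplanted into mice before dosing.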

The mark [1] stands for this setting: dose: 1.56 mg/kg/injection, schedule: Q01DX009 (ip), vehicle: saline.
[2] abbreviates: dose: 6.25 mg/kg/injection, schedule: Q01DX009 (ip), vehicle: saline.
[3] abbreviates: dose: 12.5 mg/kg/injection, schedule: Q01DX009 (ip), vehicle: saline.
[4] abbreviates: dose: 50.0 mg/kg/injection, schedule: Q01DX009 (ip), vehicle: saline with Tween-80.
[5] abbreviates: dose: 100.0 mg/kg/injection, schedule: Q01DX009 (ip), vehicle: saline with Tween-80.
Setting [6] is: dose: 200.0 mg/kg/injection, schedule: Q01DX009 (ip), vehicle: saline with Tween-80.
Where [7] appears, read: dose: 100.0 mg/kg/injection, schedule: Q04DX003 (ip), vehicle: saline with Tween-80.
Setting [8] is: dose: 200.0 mg/kg/injection, schedule: Q04DX003 (ip), vehicle: saline with Tween-80.

Each structure is given as a SMILES string. Several values for one entry are separate records, joined by “and”; a condition that tells them apart may be missing. Equal entries are not always repeated. Toxic doses and inconclusive results are not listed.

For `COc1cc(O)c2c(c1)C(=O)c1cc3c(c(O)c1C2=O)C(OC1OC(C)C(O)C(O)C1OC)C(OC)C(C)(O)C3=O` (stereo not given), the T/C by setting is: (dose: 25.9 mg/kg/injection, schedule: Q01DX009 (ip), vehicle: Klucel (hydroxypropylcellulose) (HPC)) 116 % of control; (dose: 37.5 mg/kg/injection, schedule: Q01DX010 (ip), vehicle: carboxymethylcellulose (CMC)) 150 % of control; (dose: 37.5 mg/kg/injection, schedule: Q01DX010 (ip), vehicle: saline) 111 % of control and 115 % of control; (dose: 43.2 mg/kg/injection, schedule: Q01DX009 (ip), vehicle: Klucel (hydroxypropylcellulose) (HPC)) 121 % of control; (dose: 75.0 mg/kg/injection, schedule: Q01DX010 (ip), vehicle: carboxymethylcellulose (CMC)) 165 % of control; (dose: 75.0 mg/kg/injection, schedule: Q01DX010 (ip), vehicle: saline) 120 % of control and 122 % of control. The T/C (dose: 108.0 mg/kg/injection, schedule: Q04DX003 (ip), vehicle: Klucel (hydroxypropylcellulose) (HPC)) is 114 % of control; the T/C (dose: 120.0 mg/kg/injection, schedule: Q01DX009 (ip), vehicle: Klucel (hydroxypropylcellulose) (HPC)) was 106 % of control; the T/C (dose: 180.0 mg/kg/injection, schedule: Q04DX003 (ip), vehicle: Klucel (hydroxypropylcellulose) (HPC)) was 110 % of control; the T/C (dose: 300.0 mg/kg/injection, schedule: Q04DX003 (ip), vehicle: Klucel (hydroxypropylcellulose) (HPC)) was 99 % of control; the T/C (dose: 500.0 mg/kg/injection, schedule: Q04DX003 (ip), vehicle: Klucel (hydroxypropylcellulose) (HPC)) was 97 % of control.
With `O=[N+]([O-])c1ccccc1N/N=C\c1c(Cl)[nH]c2ccccc12`, the T/C runs as follows: (dose: 200.0 mg/kg/injection, schedule: Q04DX002 (ip), vehicle: Klucel (hydroxypropylcellulose) (HPC)) 90 % of control; (dose: 400.0 mg/kg/injection, schedule: Q04DX002 (ip), vehicle: Klucel (hydroxypropylcellulose) (HPC)) 90 % of control.
`Cc1nnc2ccnn2c1C`: the T/C under setting [1] was 108 % of control; the T/C (dose: 3.13 mg/kg/injection, schedule: Q01DX009 (ip), vehicle: saline) is 102 % of control; the T/C under setting [2] was 108 % of control; the T/C under setting [3] is 100 % of control.
Take `COc1cc2ccc3c4cc5c(cc4c[n+](C)c3c2cc1OC)OCO5`: the T/C (dose: 20.0 mg/kg/injection, schedule: Q01DX009 (ip), vehicle: saline) is 122 % of control; the T/C (dose: 40.0 mg/kg/injection, schedule: Q01DX009 (ip), vehicle: saline) is 154 % of control and 159 % of control; the T/C (dose: 80.0 mg/kg/injection, schedule: Q01DX009 (ip), vehicle: saline) was 113 % of control; the T/C (dose: 120.0 mg/kg/injection, schedule: Q01DX009 (ip), vehicle: saline) is 86 % of control.
Regarding `[O-][n+]1c(-c2ccccc2)cn2ccccc21`, the T/C is 105 % of control (dose: 100.0 mg/kg/injection, schedule: Q01DX001 (ip), vehicle: saline with Tween-80) and 98 % of control (dose: 200.0 mg/kg/injection, schedule: Q01DX001 (ip), vehicle: saline with Tween-80).
In the case of `CCOC(=O)NP(=O)(N1CC1(C)C)N1CC1(C)C` (stereo not given), the T/C (dose: 31.3 mg/kg/injection, schedule: Q01DX010 (ip), vehicle: saline) was 175 % of control; the T/C (dose: 62.5 mg/kg/injection, schedule: Q01DX010 (ip), vehicle: saline) was 175 % of control; the T/C (dose: 125.0 mg/kg/injection, schedule: Q01DX010 (ip), vehicle: saline) is 200 % of control; the T/C (dose: 250.0 mg/kg/injection, schedule: Q01DX010 (ip), vehicle: saline) is 225 % of control.
Consider `COc1ccccc1C(=O)/C=C\c1ccc(OCc2ccccc2)cc1`, for which the T/C was 89 % of control under setting [4], 86 % of control under setting [5] and 87 % of control under setting [6].
With `O=S(=O)(CCBr)CCBr`, the T/C under setting [4] was 100 % of control, the T/C under setting [5] was 104 % of control, the T/C under setting [7] was 100 % of control and the T/C under setting [8] was 100 % of control.
`OC1CSC1`: the T/C (dose: 50.0 mg/kg/injection, schedule: Q01DX009 (ip), vehicle: saline + alcohol) was 105 % of control; the T/C (dose: 100.0 mg/kg/injection, schedule: Q01DX009 (ip), vehicle: saline + alcohol) is 100 % of control; the T/C (dose: 200.0 mg/kg/injection, schedule: Q01DX009 (ip), vehicle: saline + alcohol) is 91 % of control; the T/C (dose: 400.0 mg/kg/injection, schedule: Q01DX009 (ip), vehicle: saline + alcohol) is 98 % of control.
Consider `C[C@]12C[C@H](O)[C@H]3[C@@H](CCC4=CC(=O)CC[C@@]43C)[C@@H]1CC[C@@H]2C(=O)CO`, for which the T/C is, setting by setting: (dose: 45.0 mg/kg/injection, schedule: Q04DX003 (sc), vehicle: steriod suspending solution) 95 % of control; (dose: 65.0 mg/kg/injection, schedule: Q04DX003 (sc), vehicle: steriod suspending solution) 100 % of control; (dose: 200.0 mg/kg/injection, schedule: Q04DX003 (sc), vehicle: steriod suspending solution) 115 % of control; (dose: 264.0 mg/kg/injection, schedule: Q01DX009 (sc), vehicle: steriod suspending solution) 109 % of control; (dose: 264.0 mg/kg/injection, schedule: Q04DX003 (sc), vehicle: steriod suspending solution) 110 % of control; (dose: 400.0 mg/kg/injection, schedule: Q01DX009 (sc), vehicle: steriod suspending solution) 122 % of control. Besides, for the setting “dose: 400.0 mg/kg/injection, schedule: Q04DX003 (sc), vehicle: steriod suspending solution”, the T/C was 110 % of control.
Consider `O=c1nc(Oc2ccccc2)nc2ccccn12`, for which the T/C is 105 % of control under setting [4], 97 % of control under setting [5] and 102 % of control under setting [6].
Take `Nc1c(C(=O)O)[nH]c(=O)[nH]c1=O`: the T/C reads like this: under setting [4], 113 % of control; under setting [5], 219 % of control.
Turning to `O=C(OC12CCCCC1CCCC2)c1ccc([N+](=O)[O-])cc1` (stereo not given), the T/C under setting [7] was 110 % of control; the T/C under setting [8] is 100 % of control; the T/C (dose: 400.0 mg/kg/injection, schedule: Q04DX003 (ip), vehicle: saline with Tween-80) was 100 % of control.
Take `N#Cc1ccc(NC(=O)N(CCCl)N=O)cc1`: the T/C reads like this: (dose: 0.29 mg/kg/injection, schedule: Q01DX009 (ip), vehicle: saline) 122 % of control; (dose: 0.37 mg/kg/injection, schedule: Q01DX009 (ip), vehicle: Klucel (hydroxypropylcellulose) (HPC)) 116 % of control; (dose: 0.44 mg/kg/injection, schedule: Q01DX009 (ip), vehicle: saline) 122 % of control; (dose: 0.5 mg/kg/injection, schedule: Q04DX003 (ip), vehicle: Klucel (hydroxypropylcellulose) (HPC)) 103 % of control; (dose: 0.8 mg/kg/injection, schedule: Q04DX003 (ip), vehicle: Klucel (hydroxypropylcellulose) (HPC)) 107 % of control; (dose: 1.0 mg/kg/injection, schedule: Q01DX009 (ip), vehicle: saline) 162 % of control. Further, the T/C was 153 % of control and 202 % of control under setting [1]; 183 % of control (dose: 2.0 mg/kg/injection, schedule: Q04DX003 (ip), vehicle: Klucel (hydroxypropylcellulose) (HPC)); 187 % of control (dose: 3.0 mg/kg/injection, schedule: Q01DX009 (ip), vehicle: Klucel (hydroxypropylcellulose) (HPC)); 170 % of control (dose: 3.0 mg/kg/injection, schedule: Q04DX003 (ip), vehicle: Klucel (hydroxypropylcellulose) (HPC)); 175 % of control (dose: 3.12 mg/kg/injection, schedule: Q01DX009 (ip), vehicle: Klucel (hydroxypropylcellulose) (HPC)); 194 % of control (dose: 3.12 mg/kg/injection, schedule: Q01DX009 (ip), vehicle: saline). Also, the T/C (dose: 5.0 mg/kg/injection, schedule: Q04DX003 (ip), vehicle: Klucel (hydroxypropylcellulose) (HPC)) was 191 % of control and 200 % of control and 215 % of control; the T/C (dose: 6.25 mg/kg/injection, schedule: Q01DX009 (ip), vehicle: Klucel (hydroxypropylcellulose) (HPC)) is 204 % of control; the T/C under setting [2] was 219 % of control; the T/C (dose: 8.0 mg/kg/injection, schedule: Q04DX003 (ip), vehicle: Klucel (hydroxypropylcellulose) (HPC)) was 185 % of control and 210 % of control; the T/C (dose: 12.0 mg/kg/injection, schedule: Q04DX003 (ip), vehicle: Klucel (hydroxypropylcellulose) (HPC)) is 245 % of control and 220 % of control; the T/C (dose: 12.5 mg/kg/injection, schedule: Q01DX009 (ip), vehicle: Klucel (hydroxypropylcellulose) (HPC)) was 100 % of control. Also, the T/C was 102 % of control under setting [3]; 222 % of control (dose: 12.5 mg/kg/injection, schedule: Q04DX003 (ip), vehicle: Klucel (hydroxypropylcellulose) (HPC)); 265 % of control and 110 % of control (dose: 18.0 mg/kg/injection, schedule: Q04DX003 (ip), vehicle: Klucel (hydroxypropylcellulose) (HPC)); 109 % of control (dose: 25.0 mg/kg/injection, schedule: Q04DX003 (ip), vehicle: Klucel (hydroxypropylcellulose) (HPC)).

For the origin of these results see PubChem BioAssay AID328 (DTP/NCI, 2004).
